The series has as its system human stem cell-derived cardiomyocytes.

Description: First, step G-1, replaces the maintenance medium in the MEA plate that has undergone the 3rd incubation step (step F-3) with a fresh maintenance medium, and places the MEA plate into the cell culture incubator at 37° C. and 5% CO2 for 3 to 5 hours (preferably 3 hours) for stabilization of cells.
Next, the first set of measurement values on beat rate, spike amplitude, and field potential duration of the human stem cell-derived cardiomyocytes are taken (step G-2) with the MEA measurement device for the MEA plate that has undergone cell stabilization step (step G-1).
After the completion of the first measurement, a portion of the maintenance medium, which corresponds to 1/10 of the total volume in the well, is removed from wells of the MEA plate that has undergone the stabilization process. […]
Here, raw files stored in the MEA measurement device program are loaded, and the desired section of the data is re-recorded and saved as a CSV file. Then the drug's effect on the field potential of cardiomyocytes is evaluated by the changes in the reaction parameter, based on the first and second measurement values which include beat interval, spike amplitude, and field potential duration, to various concentrations of the drug.
In addition, the cardiac toxicity of a drug can be determined through changes in FPDcF and spike amplitude. […]

As for `Cc1cccc(C)c1OCC(C)N` (stereo not shown) [Mexiletine], the “change in spike amplitude” value is on record as “decrease in the spike amplitude according to the drug concentration”.

The values above are taken from US12571791B2, “Methods for evaluating cardiac safety of drug using cardiomyocytes derived from human stem cells” (NEXEL CO., LTD., priority 2021, dated 2026).
